Tests used:
[1] = test system: rat orthotopic liver transplantation model; conditions: donors treated; with vehicle all recipients died; cited from earlier work
injured motoneurones = conditions: cited from earlier work
[2] = test system: permeability of blood brain barrier; conditions: vascular insult evoked by sub-arachnoidal autologous blood; cited from earlier work
[3] = test system: streptozotocin-induced neuropathy; conditions: cited from earlier work
TNF-α mRNA = test: Inhibition of LPS-induced TNF-α expression in PMA differentiated THP-1 cells; format: cell-based, Human; conditions: LPS (1 ug/ml) and compound for 4 hours, LPS alone as 100%
Protocol: The purpose of the present study was to determine the inhibition of lipopolysaccharide(LPS)-induced TNF-α expression in phorbol merstyl ester (PMA) differentiated THP-1 cells.
Human monocytic leukaemia cell line (THP-1), differentiated into macrophage-like cells by PMA treatment was employed. Differentiated cells were treated with either LPS (1 ug/ml) alone or with LPS (1 ug/ml) and compound for 4 hours. Total RNA was isolated and expression of TNF-αmRNA along-with expression of 18S rRNA was monitored by real-time PCR. TNF-α mRNA expression was normalized relative to the expression of 18S rRNA Considering TNF-α expression for cells treated with LPS alone as 100%; the results for test compounds were expressed as % inhibition of TNF-α expression and are as shown in Table 4

HSP70b mRNA [4] = test: Cellular expression of HSP-70 mRNA in Hela cells (real-time PCR); format: cell-based; conditions: fold induction of HSP-70b mRNA relative to the vehicle treated control; 4 hours; normalized to 18S rRNA
Protocol: (§1) Experiments set forth in this section were conducted to determine whether the compounds of the present invention are able to elevate the expression of HSP-70 gene in cells.
(§2) Hela cell-line or primary mixed neurons derived from neonatal rat cerebellum were employed. Induction was carried out for the indicated dose(s) for 4 hours duration and total RNA was isolated. Expression of HSP70b mRNA along-with expression of 18S rRNA was monitored by real-time PCR. HSP70b mRNA expression was normalized relative to the expression of 18S rRNA.
(§3) The results for test compounds were expressed as fold induction of HSP-70 mRNA relative to vehicle treated control and are as shown in Table 2 & 3.

male Sprague Dawley rats = test: Neuroprotective activity, transient cerebral ischemia (intraluminal suture occlusion); format: in vivo, rat
Protocol: Transient cerebral ischemia (for 2 hit) was induced in male Sprague Dawley rats of 240-270 g body weight under halothane anaesthesia by the intraluminal suture occlusion technique—inserting a 3-0 polyamide suture from proximal external carotid artery into the lumen of internal carotid artery (Longa E Z. et al. Stroke 20: 84-91; 1989). During the entire surgical procedure for the induction of stroke, the body temperature of the animal was maintained at 37° C., using a homoeothermic blanket. At the end of 2 hrs the suture was removed for reperfusion. The test compound was administered to animals at 8th hour post initiation of occlusion and subsequently at specified interval. At the end of 7 days all the animals were sacrificed and infarct was characterized after staining with triphenyl tetrazolium chloride (TTC). The images of the stained slices were captured using a scanner and was analyzed for infarct size and edema using Scion image software. Neurological scores were obtained at different time points after surgical recovery and improvement was assessed after reperfusion by calculating the percentage change from baseline scores (scores during ischemia).

HSP70b mRNA [5] = test: Cellular expression of HSP-70 mRNA in primary mixed neurons (real-time PCR); format: cell-based; conditions: fold induction of HSP70b mRNA relative to vehicle treated control; primary mixed neurons from neonatal rat cerebellum; 4 hours; normalized to 18S rRNA
Protocol: as §1, §2, §3

CC(=O)CCC=C(C)CC/C=C(\C)CC/C=C(\C)CCC=C(C)C (mixture of isomers) [Geranylgeranyl acetone]
7-day survival of the recipients [1]: ~90%

[O-][n+]1cccc(/C(Cl)=N/OC[C@H](O)CN2CCCCC2)c1 [BRX-220]
motoneurones survived (injured motoneurones; 14 days after injury, 21% in vehicle group): 39%
motoneurons survived (injured motoneurones; at 10 weeks, 15% in untreated group): 42%

OC(CO/N=C(\Cl)c1cccnc1)CN1CCCCC1 (centres unmarked) [Bimoclomol]
reduction of size of cerebral tissue stained with Evans blue leakage [2]: 39%
reduction of nerve conduction slowing, motor [3]: 38%
reduction of nerve conduction slowing, sensory [3]: 42%
retardation of elevated ischemic resistance [3]: 71%

COc1ccc(CC2N(C(=O)C(C)(C)C)CC(=Cc3ccccn3)C(=O)C2(C)C)cc1 (centres unmarked) [Compound 16, 1-(2,2-Dimethyl-propionyl)-2-(4-methoxy-benzyl)-3,3-dimethyl-5-[1-pyridin-2-yl-methylidene]-piperidin-4-one]
TNF-alpha Inhibition (TNF-α mRNA): (++++) (>80%)
HSP Induction in Hela cells (HSP70b mRNA [4]): (++++) (>1536 fold)

COc1ccc(CC2N(C(=O)Nc3c(C)cccc3C)CC(=Cc3ccccn3)C(=O)C2(C)C)cc1 (centres unmarked) [Compound 17, 2-(4-Methoxy-benzyl)-3,3-dimethyl-4-oxo-5-[1-pyridin-2-yl-methylidene]-piperidine-1-carboxylic acid (2,6-dimethyl-phenyl)-amde]
HSP Induction in Hela cells (HSP70b mRNA [4]): (++) (25-192 fold)

CC1(C)CN(Cc2ccccc2)CC(=Cc2cccc(N3CCOCC3)n2)C1=O [Compound 20, 1-Benzyl-3,3-dimethyl-5-[1-(6-morpholin-4-yl-pyridin-2-yl)-methylidene]-piperidin-4-one]
TNF-alpha Inhibition (TNF-α mRNA): (++) (41-60%)
HSP Induction in Hela cells (HSP70b mRNA [4]): (+++) (193-1536 fold)

CC1(C)CN(Cc2ccccc2)CC(=Cc2cccc(N3CCCCC3)n2)C1=O [Compound 23, 1-Benzyl-3,3-dimethyl-5-[1-(3,4,5,6-tetrahydro-2H-[1,2′]bipyridinyl-6′-yl)-methylidene]-piperidin-4-one]
HSP Induction in Hela cells (HSP70b mRNA [4]): (+++) (193-1536 fold)

CC1(C)CN(Cc2ccccc2)C(c2ccccc2)C(=Cc2ccccn2)C1=O (centres unmarked) [Compound 25, 1-Benzyl-5,5-dimethyl-2-phenyl-3-[1-pyridin-2-yl-methylidene]-piperidin-4-one]
HSP Induction in Hela cells (HSP70b mRNA [4]): (++++) (>1536 fold)

CC1(C)CN(Cc2ccccc2)C(c2ccccn2)C(=Cc2cccc(N3CCOCC3)n2)C1=O (centres unmarked) [Compound 28, 1-Benzyl-5,5-dimethyl-3-[1-(6-morpholin-4-yl-pyridin-2-yl)-methylidene]-2,3,5,6-tetrahydro-1H-[2,2′]bipyridinyl-4-one]
HSP Induction in Hela cells (HSP70b mRNA [4]): (++++) (>1536 fold)

CC1(C)CN(Cc2ccccc2)C(c2ccccn2)C(=Cc2ccccn2)C1=O (centres unmarked) [Compound 29, 1-Benzyl-5,5-dimethyl-3-[1-pyridin-2-yl-methylidene]-2,3,5,6-tetrahydro-1H-[2,2′]bipyridinyl-4-one]
HSP Induction in Hela cells (HSP70b mRNA [4]): (+++) (193-1536 fold)

CSc1ccc(C=C2C(=O)C(C)(C)CN(Cc3ccccc3)C2c2ccccc2)cc1 (centres unmarked) [Compound 30, 1-Benzyl-5,5-dimethyl-3-[1-(4-methylsulfanyl-phenyl)-methylidene]-2-phenyl-piperidin-4-one]
HSP Induction in Hela cells (HSP70b mRNA [4]): (+) (4-24 fold)

CC1(C)CN(Cc2ccccc2)C(c2ccccc2)C(=Cc2cccc(N3CCOCC3)n2)C1=O (centres unmarked) [Compound 31, 1-Benzyl-5,5-dimethyl-3-[1-(6-morpholin-4-yl-pyridin-2-yl)-methylidene]-2-phenyl-piperidin-4-one]
HSP Induction in Hela cells (HSP70b mRNA [4]): (++) (25-192 fold)

CC1(C)CN(Cc2ccccc2)C(c2cccs2)C(=Cc2cccc(N3CCOCC3)n2)C1=O (centres unmarked) [Compound 33, 1-Benzyl-5,5-dimethyl-3-[1-(6-morpholin-4-yl-pyridin-2-yl)-methylidene]-2-thiophen-2-yl-piperidin-4-one]
HSP Induction in Hela cells (HSP70b mRNA [4]): (+++) (193-1536 fold)

CC1(C)CN(Cc2ccccc2)C(c2ccccn2)C(=Cc2cccc(N3CCCCC3)n2)C1=O (centres unmarked) [Compound 34, 1-Benzyl-5,5-dimethyl-3-[1-(3,4,5,6-tetrahydro-2H-[1,2′]bipyridinyl-6′-yl)-methylidene]-2,3,5,6-tetrahydro-1H-[2,2′]bipyridinyl-4-one]
HSP Induction in Hela cells (HSP70b mRNA [4]): (++) (25-192 fold)

CC1(C)CN(C(=O)Oc2ccccc2)CC(=Cc2cccc(N3CCCCC3)n2)C1=O [Compound 35, 3,3-Dimethyl-4-oxo-5-[1-(3,4,5,6-tetrahydro-2H-[1,2′]bipyridinyl-6′-yl)-methylidene]-piperidine-1-carboxylic acid phenyl ester]
HSP Induction in Hela cells (HSP70b mRNA [4]): (++++) (>1536 fold)

CC1(C)CN(C(=O)Oc2ccccc2)CC(=Cc2cccc(N3CCOCC3)n2)C1=O [Compound 36, 3,3-Dimethyl-5-[1-(6-morpholin-4-yl-pyridin-2-yl)-methylidene]-4-oxo-piperidine-1-carboxylic acid phenyl ester]
HSP Induction in Hela cells (HSP70b mRNA [4]): (++++) (>1536 fold)

CC1(C)CN(Cc2ccccc2)CC(=Cc2nc3ccccc3c(=O)[nH]2)C1=O [Compound 37, 2-[1-Benzyl-5,5-dimethyl-4-oxo-piperidin-3-ylidenemethyl]-3H-quinazolin-4-one]
HSP Induction in Hela cells (HSP70b mRNA [4]): (++++) (>1536 fold)

COc1ccc(CC2N(C(=O)Nc3c(C(C)C)cccc3C(C)C)CC(=Cc3ccccn3)C(=O)C2(C)C)cc1 (centres unmarked) [Compound 68, 2-(4-Methoxy-benzyl)-3,3-dimethyl-4-oxo-5-[1-pyridin-2-yl-methylidene]-piperidine-1-carboxylic acid (2,6-diisopropyl-phenyl)-amide]
TNF-alpha Inhibition (TNF-α mRNA): (++++) (>80%)
% reduction Edema (male Sprague Dawley rats; i.p. 15.2 mg/kg, multiple dose, from 8th hour post initiation of occlusion, 2 h ischemia, sacrificed at 7 days): 51.0%
% reduction Infarct (male Sprague Dawley rats; i.p. 15.2 mg/kg, multiple dose, from 8th hour post initiation of occlusion, 2 h ischemia, sacrificed at 7 days, TTC staining): 30.0%
% improvement Mean Neurological Score (male Sprague Dawley rats; i.p. 15.2 mg/kg, multiple dose, percentage change from baseline scores (scores during ischemia)): 61.1%
neuroprotective activity in an animal model of cerebral ischemia (male Sprague Dawley rats; result in words): reduced infarct size and brain edema with improvement in neurological deficit
HSP Induction in mixed neuron (HSP70b mRNA [5]): (++++) (>16 fold)
